Format in all cases: cell-based, Pseudomonas aeruginosa
One assay relates to wild type PAO1. Briefly: Swarming motility of wild type PAO1 on soft agar (antagonist assay). Particulars: for Swarming of wild type PAO1: 110 μM in soft agar; for Effect on PAO1 swarming: concentration not given. The procedure:
In contrast, the wild type P. aeruginosa produces the rhamnolipids and is capable of swarming on soft agar gel (˜0.5% agar). […] We note that saccharide hydrocarbons may also promote the swarming motility, but such promotions are less unambiguous than the inhibition for wild type PAO1. Such promotion will be unambiguous in the agonist assay using the nonswarming mutant rhlA.
(§1) Swarm agar plates were based on M8 medium supplemented with 0.2% glucose, 0.5% casamino acid, 1 mM MgSO4 and […]. 17 For each set of experiment all the swarm plates were poured from same batch of agar and allowed to dry for 1 h before inoculation of bacteria. Bacterial culture (3 μl) (wild type PAO1 or rhlA mutant) with OD600 between […] was inoculated on the solidified agar plates. Swarm agar plates were incubated at 37° C. for 12 h and then incubated for additional 12 h at room temp. Chronological images of swarm plates were taken using a camera. To measure swarming area, sizes of the petridish in all swarming images were adjusted to a pre-assigned diameter and images were printed on copying paper (Xerox-business 4200). Weight of a 1 cm^2 copy paper square was roughly ˜8.0 mg. swarming images on the copy paper were cut and weighed, the swarm area was calculated by dividing the weight of image by weight of 1 cm^2 square (8 mg).
(§2) Swarm agar plates were made using M8 medium supplemented with 0.2% glucose, 0.5% casamino acid, 1 mM MgSO4 and solidified with 0.5% Bacto agar. 24 Bacterial culture with OD600 between 0.4 to 0.6 was inoculated as 3 μl aliquots. Swarm agar plates were incubated at 37° C. for 12 h and then incubated for additional 12 h at rt. For each set of experiment all the swarm plates were poured from same batch of agar and allowed to dry for 1 h before inoculation of bacteria.

Assay [1] concerns nonswarming P. aeruginosa mutant rhlA. Briefly: Swarming motility of nonswarming rhlA mutant on soft agar (reactivation / agonist assay). The note with it: for Swarming reactivation of rhlA mutant: 110 μM in soft agar.
From the text: Using nonswarming mutant to screen for swarming agonists and wild type P. aeruginosa for swarming antagonists. The transposon mutant, rhlA (genotype, rhlA-E08:ISphoA/hah)39 of P. aeruginosa (PAO1), that impairs the gene that is responsible for synthesizing rhamnolipids is completely incapable of a swarming motility. […] Based on this inference, a rhlA mutant was used in a swarming experiment to screen the saccharide-hydrocarbons for agonists that can reactivate the swarming motility of rhlA.
as §1, §2

Another assay deals with PAO1-EGFP biofilm. Briefly: Biofilm on steel coupons, fluorescence / CLSM. Particulars: 160 μM, 24 h, LB media. The procedure:
A crystal violet (CV) assay was used to measure the amount of PAO1 biofilm formed after 24 h of bacterial inoculation. The fluorescence of green fluorescent proteins (GFP) expressed by PAO1-GFP was measured to directly quantify bacterial adhesion on polystyrene black 96 well plates with and without maltose derivatives after 2 h of bacterial inoculation. To evaluate the potential of maltose derivatives as both anti-biofilm and anti-adhesion agents, they were compared to a brominated furanone (BF8) known to inhibit biofilm formation, and two generic surfactants, sodium dodecyl sulfate (SDS) and tetra (ethylene glycol) monododecyl ether (C12EG4OH). […] P. aeruginosa strain PAO1-EGFP that constitutively producing green fluorescent protein was allowed to form biofilm on sterile steel coupons.
Confocal laser scanning microscopy (CLSM) based biofilm inhibition assay. Steel coupons (˜1×1 cm) were washed with EtOH, dried under a stream of nitrogen and then sterilized in an autoclave. Overnight culture of PAO1/EGFP (OD600 ˜1.0) grown in LB media (supplemented with 300 μg/mL of carbenicillin), was sub-cultured to OD600˜0.01 and then the OD600 was allowed to reach ˜0.1. Aliquot (600 μL) of PAO1/EGFP subculture OD600˜0.1 was then added into the wells of a 24-well micro titer plate. DSHs were then introduced into the assigned wells to reach a resultant concentration of 160 μM. Bacterial sub-culture with no agent served as positive control. Sterile steel coupons were then placed into the wells and the plates were wrapped with saran wrap and incubated for 24 h at 37° C. under static conditions. After 24 hours, the steel coupons were removed and washed by dipping in PBS buffer (2 washes) and the dried by holding with a forcep and gently dabbing the edge on a bleached paper (KIM wipes). The dried steel coupons were viewed under confocal laser scanning microscope (CLSM). Images were taken at 4 random locations on each steel coupons. Z-stacked images were also taken to determine the relative thickness of the biofilm.

For the next assay, the system named is PAO1 biofilm. Briefly: Crystal violet based static biofilm inhibition assay, DSHs in LB media (Examples 2 and 4). The note with it: for Inhibition of PAO1 biofilm formation (surface attached): 160 μM, 24 h, LB media; for Anti-biofilm activity (biofilm inhibition): concentration not given. The procedure: The ability of DSHs was tested to inhibit Pseudomonas aeruginosa adhesion, biofilm and to disperse pre-formed biofilm. To quantify the amount of PAO1/EGFP attached on the surface of micro titer plates with or without the synthesized DSHs, fluorescence emitted by green fluorescent proteins (GFP) was quantified (see supporting info for details). Crystal violet (CV) based static biofilm assay (see supporting info) was used to screen the anti-biofilm potencies of all synthesized agents. Both surface attached (SA) (FIG. 17) and total (SA+air-liquid interface) biofilm of P. aeruginosa was quantified. […] CV assays were also used to quantify the amount of P. aeruginosa biofilm remaining after dispersion experiments (FIG. 19). Initially, all agents were screen for anti-biofilm activities (both inhibition and dispersion) at 160 μM. […] All reported biofilm inhibition results are an average of 4 identical wells.
The effect that DSHs have on the adhesion of PAO1-EGFP on polystyrene surface (microtiter plate) was also examined. PAO1-EGFP is a P. aeruginosa strain that constitutively expresses green fluorescent protein. In the adhesion assays, PAO1-EGFP was grown in microtiter plate for 24-hours in LB-media with (160 μM) or without DSHs. After 24-hours, the fluorescent signal obtained from surface adhered PAO1-EGFP was measured. Percent reduction in fluorescence was calculated by comparing fluorescent signal from PAO1-EGFP grown in LB-media with the signal from wells that had DSHs (FIG. 29A). To study the effect of DSHs on biofilm formation, Pseudomonas aeruginosa (PAO1) was grown in LB-media with (160 μM) or without DSHs at 37° C. under static conditions within wells of microtiter plates. After 24 hours, the surface attached biofilms adhering to the bottom of the wells were stained with crystal-violet dye and the biofilm was quantified by measuring absorbance at 600 nm (OD600). […] Similar to inhibition, the surface attached biofilm after dispersion with DSHs was quantified with crystal-violet staining and absorbance measurement at 600 nm, except that for dispersion, biofilm was first grown for 1 day in just LB-media without any DSHs after which DSHs were added and plates were incubated for additional 24 hours followed by quantification (FIG. 29B).
Crystal violet (CV) based-biofilm inhibition assay. Inhibitory effect of all synthesized disaccharide hydrocarbons on biofilm formation of Pseudomonas aeruginosa (wild type PAO1) was determined by static biofilm inhibition assay using crystal violet staining. Overnight culture of PAO1 were sub cultured in LB media to OD600 of 0.01 and further the OD600 was allowed to reach ˜0.1. The bacterial sub-culture (200 μL) was then added into the wells of a microtiter plate. Predetermined concentrations of DSHs were added to respective wells containing sub culture by pipetting out fixed volume of sterile aqueous stock solutions (except DβL (7), SPOT, (15) and 2-ODαC (17), which were introduced as stocks prepared in H2O […] and EtOH (90:10) solutions). The microtiter plates were then wrapped in GLAD Press n′ Seal® (saran wrap) and further incubated under stationary conditions for 24 h at 37° C. After 24 h incubation, the culture media was discarded by pipetting carefully (without disrupting biofilm), the plate was then washed once with sterile water (200 μL) and allowed to dry at 37° C. for ˜30 mins. Microtiter plates were then stained with 0.1% aqueous solution of crystal violet (CV) (200 μL) at rt for ˜30 mins. Following this, the CV stain was removed and plate was again washed with sterile water (200 μL). Resultant CV stain in the well was then solubilized by adding 100 μL of 30% AcOH solution (in water) and mixing gently by pipetting.

Where [2] appears, read: 85 μM in soft agar (0.5%), 24 h.

The results in this text go back to patent US11357786B2, “Synthetic disugar hydrocarbons as natural analogs to control microbial behaviors” (Syracuse University, priority 2014, dated 2022).

Regarding `CCCCCCCCCCCCO[C@@H]1O[C@H](CO)[C@@H](O[C@@H]2O[C@H](CO)[C@H](O)[C@H](O)[C@H]2O)[C@H](O)[C@H]1O` [DβL (7), dodecyl-β-lactoside], in the assay on wild type PAO1 (24 h), the “Swarming of wild type PAO1” value is “did not significantly affect the swarm pattern”. Further, the “Swarming reactivation of rhlA mutant” value in assay [1] (24 h) is listed as “incapable of reactivating the swarming”. Also, in the assay with PAO1-EGFP biofilm, the “PAO1-EGFP biofilm on stainless steel coupons (CLSM)” value (“PAO1-EGFP biofilm” for short) was “bacterial surface coverage comparable to that of control”. Further, the “Inhibition of PAO1 biofilm formation (surface attached)” value (from here on “Inhibition of PAO1 biofilm formation”) with PAO1 biofilm is “insignificant biofilm inhibition”; in the assay on PAO1 biofilm (listed as 7: DβL, 160 µM), “severely compromised the anti-biofilm activity”. In addition, the “Anti-biofilm activity (biofilm inhibition)” value in the assay on PAO1 biofilm was “low activities”.

Take `CCCCCCCCCCO[C@@H]1O[C@H](CO)[C@@H](O[C@@H]2O[C@H](CO)[C@@H](O)[C@H](O)[C@H]2O)[C@H](O)[C@H]1O` [DeβC (2), decyl-β-cellobioside]: the “Swarming motility of wild type PAO1” value in the assay with wild type PAO1 (85 μM in soft agar, 24 h) is on record as “did not show a noticeable effect on the swarming motility”; in the assay on wild type PAO1 (160 μM in soft agar, 24 h) it was “weak promotion of swarming motility of wild type PAO1”. Also, the “Swarming of wild type PAO1” value in the assay on wild type PAO1 (24 h) is on record as “did not significantly affect the swarm pattern”. Further, in the assay with wild type PAO1, the “Effect on PAO1 swarming” value is reported as “no apparent effect on PAO1 swarming”. The “Swarming motility of rhlA mutant” value in assay [1] (setting [2]) is given as “did not show a noticeable effect on the swarming motility”; in assay [1] (160 μM in soft agar, 24 h), “weak activation of rhlA swarming motility”. In addition, the “Swarming reactivation of rhlA mutant” value in assay [1] (24 h) is “incapable of reactivating the swarming”. In addition, the “Reactivation of swarming motility of rhlA mutant” value in assay [1] (concentration not given) is listed as “activated the swarming motility of rhlA mutant”. Further, the “Increase of reactivated swarming ring of rhlA with respect to swarming ring of PAO1 without agents” value in assay [1] (increasing from 85 to 160 μM) is 38%. For the same compound, in the assay with PAO1-EGFP biofilm, the “PAO1-EGFP biofilm” value was “bacterial surface coverage comparable to that of control”. For the same compound, the “Inhibition of PAO1 biofilm formation” value in the assay with PAO1 biofilm was “insignificant biofilm inhibition and no”; with PAO1 biofilm (listed as 2: DeβC, 160 µM), “complete loss of anti-biofilm activity”. Also, the “Anti-biofilm activity (biofilm inhibition)” value with PAO1 biofilm is given as “did not show significant inhibition of PAO1 biofilm”; in the assay on PAO1 biofilm (listed as DβC (2)) it was “did not show anti-biofilm activities”.

In the case of `CCCCCCCCCCCCO[C@@H]1O[C@H](CO)[C@@H](O[C@@H]2O[C@H](CO)[C@@H](O)[C@H](O)[C@H]2O)[C@H](O)[C@H]1O` [DβC (4), dodecyl-β-cellobioside], the “Concentration at which tendrils were induced in PAO1” value in the assay with wild type PAO1 is 20 µM. The “Swarming motility of wild type PAO1” value is “stronger inhibition than rhamnolipids” in the assay on wild type PAO1 (20 μM) and “causing significant amount of tendril formation” in the assay with wild type PAO1 (85 μM in soft agar, 24 h). The “Swarming area of PAO1 smaller than control” value in the assay on wild type PAO1 (85 μM) is given as ~46%. Moreover, in the assay on wild type PAO1 (85 μM, control ~24 cm2), the “Swarming area of wild type PAO1” value is ~13 cm2. Further, the “Swarming of wild type PAO1” value with wild type PAO1 (24 h, listed as 4: DbC) is recorded as “promotes tendril formation”; in the assay with wild type PAO1 (24 h, listed as 4: DβC), “induced more tendril formation”. Further, in the assay with wild type PAO1, the “Effect on PAO1 swarming” value is “induced tendril formation in the swarming pattern of PAO1”. The “Concentration of activity reversal for swarming inhibition of PAO1 (transition concentration)” value in the assay with wild type PAO1 (soft agar) is ~20 to 30 µM. In addition, in assay [1], the “Concentration at which tendril formation was induced in rhlA mutant” value is ~56 µM. For the same compound, in assay [1], the “Concentration of first inhibition of rhlA swarming” value is listed as “around 50 μM”. The “Swarming motility of rhlA mutant” value is given as “activated the swarming motility of rhlA mutant” in assay [1] (40 μM) and “strong reactivation of the swarming motility in rhlA mutant” in assay [1] (setting [2]). Besides, the “Swarming reactivation of rhlA mutant” value in assay [1] (24 h, listed as 4: DbC) was “fully restores swarming with fine tendrils”; in assay [1] (24 h, listed as 4: DβC), “fully restored the swarming of rhlA”. For the same compound, in assay [1] (after first inhibition), the “Concentration of another activation of rhlA swarming” value is recorded as “about 160 μM”. Also, the “Concentration of activity reversal for swarming promotion of rhlA mutant (transition concentration)” value in assay [1] (soft agar) was “^a~45-56 μM”; in assay [1] (soft agar, listed as 4), 45 to 56 µM. Besides, in assay [1] (soft agar), the “Lowest concentration that reactivates swarming of rhlA mutant” value was ≤ 20 µM. Also, in the assay on PAO1-EGFP biofilm, the “PAO1-EGFP biofilm” value was “decreased the fluorescence signal significantly”. For the same compound, the “Inhibition of PAO1 biofilm formation” value in the assay with PAO1 biofilm (listed as 4: DβC, 160 µM) came to 60%; in the assay on PAO1 biofilm (listed as DISC (4)), 62%. In the assay on PAO1 biofilm (Example 4, FIG. 30), the IC50 (as a rule, the midpoint of a concentration-inhibition curve) is ~72 µM.
